Test results from ChEMBL document CHEMBL1201862, “PubChem BioAssay data set” (2004).
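Grown in 96-well plates, cells were treated for 48 hours with each compound at five concentrations. Insufficient inhibition: endpoint recorded as highest concentration tested. Here, GI50 denotes the concentration required for 50% inhibition of growth.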 Calls of active or inactive are those of the source. Cut-off read from the data, not from the text of the source: active = GI50 up to about 1.1 µM and inactive = higher.

Legend:
Assay in all cases: NCI tumour cell line growth inhibition, 48 h
U-251 = system: U-251
HCT-116 = system: HCT-116
SR = system: SR
SW-620 = system: SW-620
OVCAR-3 = system: OVCAR-3
HOP-62 = system: HOP-62
UACC-257 = system: UACC-257
COLO 205 = system: COLO 205
SF-295 = system: SF-295
UACC-62 = system: UACC-62
Malme-3M = system: Malme-3M
IGROV-1 = system: IGROV-1
A498 = system: A498
PC-3 = system: PC-3
RXF 393 = system: RXF 393
Hs-578T = system: Hs-578T
LOX IMVI = system: LOX IMVI
A549 = system: A549
SF-539 = system: SF-539
SK-MEL-5 = system: SK-MEL-5

In the case of NS(=O)(=O)c1ccc(NC(=O)c2ccc3nc4ccccc4c(Nc4ccc(S(N)(=O)=O)cc4)c3c2)cc1, the GI50 (U-251) is reported as 62.8 µM (inactive), the GI50 (HCT-116) is reported as > 100 µM (inactive) and the GI50 (SR) is reported as > 100 µM (inactive). For the same compound, the GI50 (SW-620) was > 100 µM (inactive), the GI50 (OVCAR-3) was > 100 µM (inactive) and the GI50 (HOP-62) was > 100 µM (inactive). The GI50 (UACC-257) was > 100 µM (inactive), the GI50 (COLO 205) was > 100 µM (inactive) and the GI50 (SF-295) was > 100 µM (inactive). For the same compound, the GI50 (UACC-62) was > 100 µM (inactive), the GI50 (Malme-3M) was > 100 µM (inactive) and the GI50 (IGROV-1) was > 100 µM (inactive). The GI50 (A498) was > 100 µM (inactive), the GI50 (PC-3) was > 100 µM (inactive) and the GI50 (RXF 393) was > 100 µM (inactive). For the same compound, the GI50 (Hs-578T) was > 100 µM (inactive), the GI50 (LOX IMVI) was > 100 µM (inactive) and the GI50 (A549) was > 100 µM (inactive). The GI50 (SF-539) was > 100 µM (inactive) and the GI50 (SK-MEL-5) was > 100 µM (inactive).
S=C(N/N=C(/c1ccccc1)c1ccccn1)N(Cc1ccccn1)Cc1ccccn1 was tested, and the GI50 (U-251) was < 0.016 µM (active), the GI50 (HCT-116) was < 0.01 µM (active) and the GI50 (SR) was 0.906 µM (active). For the same compound, the GI50 (SW-620) was < 0.0277 µM (active), the GI50 (OVCAR-3) was 0.183 µM (active) and the GI50 (HOP-62) was 0.964 µM (active). For the same compound, the GI50 (UACC-257) was 0.0425 µM (active), the GI50 (COLO 205) was < 0.0157 µM (active) and the GI50 (SF-295) was 0.367 µM (active). For the same compound, the GI50 (UACC-62) was 0.338 µM (active), the GI50 (Malme-3M) was 0.0655 µM (active) and the GI50 (IGROV-1) was < 0.01 µM (active). The GI50 (A498) was 0.521 µM (active), the GI50 (PC-3) was 0.0541 µM (active) and the GI50 (RXF 393) was 1 µM (active). For the same compound, the GI50 (Hs-578T) was 1.41 µM (inactive), the GI50 (LOX IMVI) was 0.0908 µM (active) and the GI50 (A549) was 0.435 µM (active). The GI50 (SF-539) was 0.119 µM (active) and the GI50 (SK-MEL-5) was 0.358 µM (active).
With CCOC(=O)C1=CN(Cc2ccccc2)C2ON=C(c3ccc(Cl)cc3)C2C1 (stereo not given) the GI50 (U-251) was 13.5 µM (inactive), the GI50 (HCT-116) was 19.9 µM (inactive) and the GI50 (SR) was > 23.9 µM (inactive). For the same compound, the GI50 (SW-620) was > 52.5 µM (inactive), the GI50 (OVCAR-3) was 39.3 µM (inactive) and the GI50 (HOP-62) was > 55.5 µM (inactive). The GI50 (UACC-257) was 33.3 µM (inactive), the GI50 (COLO 205) was > 51.3 µM (inactive) and the GI50 (SF-295) was 45.6 µM (inactive). The GI50 (UACC-62) was 17.1 µM (inactive), the GI50 (Malme-3M) was > 55 µM (inactive) and the GI50 (IGROV-1) was 29.5 µM (inactive). For the same compound, the GI50 (A498) was > 42.6 µM (inactive), the GI50 (PC-3) was > 36.6 µM (inactive) and the GI50 (RXF 393) was 38.6 µM (inactive). The GI50 (Hs-578T) was 11.6 µM (inactive), the GI50 (LOX IMVI) was > 57.5 µM (inactive) and the GI50 (A549) was 17.6 µM (inactive). The GI50 (SF-539) was > 55 µM (inactive) and the GI50 (SK-MEL-5) was 16.5 µM (inactive).
For Cc1ccc(NCc2nnc3c(-c4ccccc4)nc4ccccc4n23)cc1, the GI50 (U-251) was 16.7 µM (inactive), the GI50 (HCT-116) was 21.5 µM (inactive) and the GI50 (SR) was 13 µM (inactive). For the same compound, the GI50 (SW-620) was 39.3 µM (inactive), the GI50 (OVCAR-3) was 49.7 µM (inactive) and the GI50 (HOP-62) was 46.1 µM (inactive). For the same compound, the GI50 (UACC-257) was 36 µM (inactive), the GI50 (COLO 205) was 32.8 µM (inactive) and the GI50 (SF-295) was 33.7 µM (inactive). The GI50 (UACC-62) was 33.7 µM (inactive), the GI50 (Malme-3M) was 37.2 µM (inactive) and the GI50 (IGROV-1) was 17.5 µM (inactive). For the same compound, the GI50 (A498) was 32.6 µM (inactive), the GI50 (PC-3) was 19.1 µM (inactive) and the GI50 (RXF 393) was 34.8 µM (inactive). The GI50 (Hs-578T) was 50.7 µM (inactive), the GI50 (LOX IMVI) was 23.5 µM (inactive) and the GI50 (A549) was 23.2 µM (inactive). The GI50 (SF-539) was 60.5 µM (inactive) and the GI50 (SK-MEL-5) was 14.4 µM (inactive).
In the case of CC(C)(C)C1=CC(=C2C=Cc3ccccc3O2)C=C(C(C)(C)C)C1=O, the GI50 (U-251) is reported as 2.46 µM (inactive), the GI50 (HCT-116) is reported as 2.76 µM (inactive) and the GI50 (SR) is reported as 1.85 µM (inactive). The GI50 (SW-620) was 2.84 µM (inactive), the GI50 (OVCAR-3) was 2.23 µM (inactive) and the GI50 (HOP-62) was 6.04 µM (inactive). For the same compound, the GI50 (UACC-257) was 3.61 µM (inactive), the GI50 (COLO 205) was 2.18 µM (inactive) and the GI50 (SF-295) was 5.33 µM (inactive). The GI50 (UACC-62) was 2.56 µM (inactive), the GI50 (Malme-3M) was 3.81 µM (inactive) and the GI50 (IGROV-1) was 6.53 µM (inactive). The GI50 (A498) was 4.39 µM (inactive), the GI50 (PC-3) was 4.09 µM (inactive) and the GI50 (RXF 393) was 2.25 µM (inactive). For the same compound, the GI50 (Hs-578T) was 7 µM (inactive), the GI50 (LOX IMVI) was 3.06 µM (inactive) and the GI50 (A549) was 4.16 µM (inactive). The GI50 (SF-539) was 7.05 µM (inactive) and the GI50 (SK-MEL-5) was 3.81 µM (inactive).
With COc1ccc(CNC2=N/C(=C\c3ccccc3Cl)C(=O)N2C)cc1 the GI50 (U-251) was 17.9 µM (inactive), the GI50 (HCT-116) was 18.4 µM (inactive) and the GI50 (SR) was 25.2 µM (inactive). For the same compound, the GI50 (SW-620) was 19.5 µM (inactive), the GI50 (OVCAR-3) was 22.8 µM (inactive) and the GI50 (HOP-62) was 47.8 µM (inactive). The GI50 (UACC-257) was 33.6 µM (inactive), the GI50 (COLO 205) was 24.9 µM (inactive) and the GI50 (SF-295) was 31.7 µM (inactive). For the same compound, the GI50 (UACC-62) was 17.5 µM (inactive), the GI50 (Malme-3M) was 33 µM (inactive) and the GI50 (IGROV-1) was 24.9 µM (inactive). For the same compound, the GI50 (A498) was 25.7 µM (inactive), the GI50 (PC-3) was 28.1 µM (inactive) and the GI50 (RXF 393) was 31.8 µM (inactive). For the same compound, the GI50 (Hs-578T) was 57.4 µM (inactive), the GI50 (LOX IMVI) was 20.1 µM (inactive) and the GI50 (A549) was 31.1 µM (inactive). For the same compound, the GI50 (SF-539) was 24.6 µM (inactive) and the GI50 (SK-MEL-5) was 19.9 µM (inactive).
For CC(CN1CC(=O)NC(=O)C1)N1CC(=O)NC(=O)C1 (stereo not given) [RAZOXANE], the GI50 (U-251) was 201 µM (inactive), the GI50 (HCT-116) was 104 µM (inactive) and the GI50 (SR) was 155 µM (inactive). The GI50 (SW-620) was 54.7 µM (inactive), the GI50 (OVCAR-3) was 356 µM (inactive) and the GI50 (HOP-62) was 54.7 µM (inactive). For the same compound, the GI50 (UACC-257) was 535 µM (inactive), the GI50 (COLO 205) was 22.5 µM (inactive) and the GI50 (SF-295) was 127 µM (inactive). For the same compound, the GI50 (UACC-62) was 340 µM (inactive), the GI50 (Malme-3M) was 52.2 µM (inactive) and the GI50 (IGROV-1) was 289 µM (inactive). For the same compound, the GI50 (A498) was 157 µM (inactive), the GI50 (PC-3) was 66.1 µM (inactive) and the GI50 (RXF 393) was 473 µM (inactive). The GI50 (Hs-578T) was 72.3 µM (inactive), the GI50 (LOX IMVI) was 212 µM (inactive) and the GI50 (A549) was 32.9 µM (inactive). For the same compound, the GI50 (SF-539) was 332 µM (inactive) and the GI50 (SK-MEL-5) was 198 µM (inactive).
